Measurements as given in US12257214B2, “Compositions and methods comprising deoxy-pentitols” (The Charlotte Mecklenburg Hospital Authority, priority 2021, dated 2025).
Where two headings read alike, the source gives them in different places.

Columns and labels:
[1] = test system: breast cancer cell line MCF7; assay: MCF7 cell culture, growth and death (FIG. 2); assay type: cell-based; settings: MCF7, 0.4-50 mM, 3 day treatment
Experimental: From left-top-to-bottom: Control, 0.4 mM Drug, 2 mM rib, and 10 mM Drug; From right-top-to-bottom: 0.4 mM rib; 2 mM Drug; 10 mM rib; and 50 mM Drug.
However, this effect was not related to the enhanced expression of glycosylation of α-DG.

[2] = test system: prostate cancer cell line LNCaP; assay: LNCaP cell culture, growth and death (FIG. 5, FIG. 10); assay type: cell-based; settings: for number of cancer cells / anticancer effect: 10 mM, 7 days (FIG. 10)
Experimental: A dose dependent decrease in cell density was clearly detected with 2-deoxyribitol treatment, but not with ribitol treatment.
Less than 50% of cells and 10% of cells were detected with the treatment of 10 mM and 50 mM 2-deoxyribitol, respectively.

[3] = test system: alpha dystroglycan (α-DG); settings: cited from earlier work
[4] = test system: MCF7 cells; assay: Mammosphere formation (FIG. 4); assay type: cell-based; settings: MCF7, Vitamin C 50 μM 5 days, then normal medium 6 days
Experimental: Cells were also treated with Vitamin C (VitC) at a concentration of 50 μM for 5 days (5d) and then returned to normal medium (NM) for 6 days (d6), without (lower left panel) or with 2-deoxyribitol (Drug, lower right panel). The formation of cancer mammospheres, considered to be cancer stem cell-rich population, can be seen in culture without Drug treatment, and with Vitamin C treatment only. Drug treatment greatly reduces to eliminates the formation of cancer mammospheres.
To examine mammosphere formation, MCF7 cells were grown for 11 days with or without 2-deoxyribitol (drug) treatment (FIG. 4, top panels). In addition, MCF7 cells were treated with Vitamin C at the concentration of 50 μM for 5 days and then returned to normal medium (“NM”) for 6 days (FIG. 4, lower panels).

[5] = Pei Lu et al., (2020) Sci Rep 10(1):4935

Compound | number of cancer cells / anticancer effect [2] | glycosylation of α-DG [3, 5] | further results
OC[C@@H](O)[C@@H](O)[C@@H](O)CO [ribitol, reference compound] | did not show the same anticancer effects |  | effect on cell growth, death and morphology [1]: no clear effect on cell growth and morphology; effect on cell growth, death and cell density ([2]; 2-50 mM, 4 days): slightly increased; glycosylation of α-DG ([3]; some cancer cells including MCF7, background statement): enhances glycosylation of α-DG
O=C[C@H](O)[C@H](O)[C@H](O)CO [ribose] |  | showed an effect of enhancing glycosylation of α-DG | 
O=CC[C@H](O)[C@H](O)CO [2-deoxyribose, reference compound] | did not show the same anticancer effects |  | 
O=P(O)(O)OC[C@@H](O)[C@@H](O)[C@@H](O)CO [ribitol-5-phosphate] |  | showed an effect of enhancing glycosylation of α-DG | 
O=C(CO)[C@H](O)[C@H](O)CO [ribulose] |  | showed an effect of enhancing glycosylation of α-DG | 
O=C1O[C@H]([C@@H](O)CO)C(O)=C1O [Vitamin C, reference compound] |  |  | number of mammospheres, Vitamin C then normal medium [4]: greatly increased the number of well-defined mammospheres
